{
  "source": "patent US20060122267A1",
  "about": "“Compositions and methods for attenuating mitochondria-mediated cell injury” (priority 2003, published 2006)",
  "system": "isolated adult rat cardiomyocytes",
  "assay": "Mitochondrial H+ leak in cardiomyocytes (respiration divided by TMRE fluorescence) after ischemia-reperfusion",
  "assay_type": "cell-based",
  "settings": "doses that protect cardiomyocyte viability",
  "protocol": "Cardiomyocyte respiration rate was measured with an oxygen electrode, and membrane potential with the fluorescent dye TMRE (20 nM) in a fluorimeter. H^+ leak is essentially the amount of work the respiratory chain must do to maintain a given membrane potential, and experimentally is derived by dividing respiration by TMRE fluoresence. […] All data are means±SEM, N>3.\nAdult rat cardiomyocytes were prepared by collagenase perfusion according to standard methods (Dai, et al. (2001) supra), yielding ˜4×10^6 cells per heart, >80% rod-shaped and viable. Incubations were in a shaking water bath at 37° C., each utilizing 5×10^5 cells in 5 mL of the KH buffers described below. For the control, cells were incubated for 2 hours in oxygenated KH buffer (95/5 O2/CO2). For ischemia-reperfusion treatment, cells were subjected to 30 minutes in oxygenated KH buffer, 1 hour in “ischemic” KH buffer (95/5 N2/CO2, pH 6.5, no glucose), and 30 minutes in oxygenated KH buffer. […] At the end of each protocol, cell viability was assayed (Trypan blue), and mitochondrial function determined (measurement of ΔΨm with the fluorescent probe TMRE, respiration with an O2 electrode, and S-nitrosothiol content by chemiluminescence and biotin-switch.",
  "data": [
    {"smiles": "N[C@@H](CCC(=O)N[C@@H](CSN=O)C(=O)NCC(=O)O)C(=O)O", "note": "[S-nitrosoglutathione]", "values": [
      {"measurement": "effect on increase in mitochondrial H+ leak induced by ischemia-reperfusion", "value": "prevent large increases in H^+ leak"}
    ]}
  ]
}
